{
  "source": "patent US8835478B2",
  "about": "“Treatment for cancer” (Pitney Pharmaceuticals PTY Limited, priority 2005, dated 2014)",
  "key": {"1A9 cells": {"tested_on": "1A9 cells", "experiment": "Sulforhodamine B (SRB) cell proliferation assay, 5-day treatment, 1A9", "assay_type": "cell-based", "conditions": "Homo sapiens", "experimental": "(§1) Human ovarian carcinoma cell lines OVCAR-3, SKOV-3, 1A9 and 1A9PTX22 were used. OVCAR-3 and SKOV-3 cells were obtained from the American Type Culture Collection (ATCC) and maintained on RPMI medium and McCoy5A medium respectively according to ATCC instructions. 1A9 is a clone of the human ovarian carcinoma cell line, A2780 (Sackett et al., 1997). 1A9PTX22 is a paclitaxel resistant subclone of 1A9 cells, isolated as an individual clone in a single step selection by exposing 1A9 cells to 5 ng/ml paclitaxel in the presence of 5 μg/ml verapamil, a Pgp antagonist (Giannakakou et al., 1997). Cells were maintained in 15 ng/ml paclitaxel and 5 μg/ml verapamil continuously.\n(§2) Sulforhodamine B (SRB) colorimetric assay was used to study the effect of albendazole, paclitaxel or their combination on tumour cell cytotoxicity in vitro.\n(§3) Cells were harvested from exponential phase cultures by trypsinization, counted and plated in 96-well plates. Optimal seeding densities for each cell line were determined to ensure exponential growth during a 5-day assay. Seeding densities were 5000, 1000, 400 and 3500 cells per well for OVCAR-3, SKOV-3, 1A9 and 1A9PTX22 cells, respectively. […] The plates were left to dry at room temperature and bound protein stain was solubilized with 100 μl 10 mM un-buffered Tris base [tris(hydroxymethyl)aminomethane)] before reading the optical density (OD) at 570 nm. […]"}, "SKOV-3 cells": {"tested_on": "SKOV-3 cells", "experiment": "Sulforhodamine B (SRB) cell proliferation assay, 5-day treatment, SKOV-3", "assay_type": "cell-based, human", "conditions": "5 days", "experimental": "as §1, §2, §3"}, "1A9PTX22 cells [1]": {"tested_on": "1A9PTX22 cells", "experiment": "Sulforhodamine B (SRB) cell proliferation assay, 5-day treatment, 1A9PTX22 (paclitaxel resistant)", "assay_type": "cell-based, human", "conditions": "for effect on cell proliferation: 1A9PTX22", "experimental": "as §1, §2\nCells were harvested from exponential phase cultures by trypsinization, counted and plated in 96-well plates. Optimal seeding densities for each cell line were determined to ensure exponential growth during a 5-day assay. Seeding densities were 5000, 1000, 400 and 3500 cells per well for OVCAR-3, SKOV-3, 1A9 and 1A9PTX22 cells, respectively. Cells plated in 96-well tissue culture plates were treated with 100 μl cell culture medium containing various concentrations of albendazole, paclitaxel or a combination of the two. […] Treatment media were replaced on alternate days. At the end of the treatment period (5 days), wells were assayed for cellular protein content. The SRB assay was performed according to the method described by Skehan et al. (1990) and Papazisis at al. (1997), with minor modifications. The culture medium was aspirated prior to fixation of the cells by the addition of 100 μl 10% cold trichloroacetic acid. After an hour incubation at 4° C., cells were washed five times with water. The cells were then stained with 200 μl 0.4% SRB dissolved in 1% acetic acid for at least 15 min and subsequently washed four times with 1% acetic acid to remove unbound stain. The plates were left to dry at room temperature and bound protein stain was solubilized with 100 μl 10 mM un-buffered Tris base [tris(hydroxymethyl)aminomethane)] before reading the optical density (OD) at 570 nm.\nFor each of the four cell lines used in this study, sensitivity of each line was initially tested by incubating cells with various concentrations of albendazole or paclitaxel for 5 days. The SRB assay was performed at the end of the treatment period to determine cell response to drug treatment."}, "1A9PTX22 cells [2]": {"tested_on": "1A9PTX22 cells", "experiment": "SRB assay, 72 hours, cross resistance of 1A9PTX22 compared to parent line 1A9", "assay_type": "cell-based, human", "conditions": "for concentration at which partial resistance of 1A9PTX22 is apparent: 1A9PTX22 vs 1A9, p<0.001; for degree of sensitivity of 1A9PTX22 cells compared to parent cell line 1A9: various concentrations", "experimental": "Cells were harvested from exponential phase cultures by trypsinization, counted and plated in 96-well plates. Optimal seeding densities for each cell line were determined to ensure exponential growth during a 5-day assay. Seeding densities were 5000, 1000, 400 and 3500 cells per well for OVCAR-3, SKOV-3, 1A9 and 1A9PTX22 cells, respectively. Cells plated in 96-well tissue culture plates were treated with 100 μl cell culture medium containing various concentrations of albendazole, paclitaxel or a combination of the two. Both albendazole and paclitaxel were originally made up in absolute ethanol and subsequently diluted with cell culture medium to give the desired drug concentrations with a final ethanol concentration of 1%. Treatment media were replaced on alternate days. At the end of the treatment period (5 days), wells were assayed for cellular protein content. The SRB assay was performed according to the method described by Skehan et al. (1990) and Papazisis at al. (1997), with minor modifications. The culture medium was aspirated prior to fixation of the cells by the addition of 100 μl 10% cold trichloroacetic acid. After an hour incubation at 4° C., cells were washed five times with water. The cells were then stained with 200 μl 0.4% SRB dissolved in 1% acetic acid for at least 15 min and subsequently washed four times with 1% acetic acid to remove unbound stain. The plates were left to dry at room temperature and bound protein stain was solubilized with 100 μl 10 mM un-buffered Tris base [tris(hydroxymethyl)aminomethane)] before reading the optical density (OD) at 570 nm.\n1A9 and 1A9PTX22 cells plated in 96-well tissue culture plates were treated with 100 μl cell culture medium containing various concentrations of vincristine and colchicine for 72 hours and SRB assays conducted as described above. As for paclitaxel (see Example 1), both vincristine and colchicine were originally made up in absolute ethanol and subsequently diluted with cell culture medium to give the desired drug concentrations with a final ethanol concentration of 1%. The results are illustrated in FIGS. 5A (vincristine) and 5B (colchicine). […] The partial resistance of 1A9PTX22 is apparent for vincristine at concentrations of 5 nM and above and for colchicine at 100 nM and above (p<0.001)."}},
  "data": [
    {"compound": "CCCSc1ccc2nc(NC(=O)OC)[nH]c2c1", "note": "[albendazole]", "values": [
      {"measurement": "inhibition at 0.1 µM", "setting": "1A9 cells; 1A9, 120 h, read-out: inhibition of proliferation", "value": 11.8, "unit": "%"},
      {"measurement": "reduction in cell proliferation", "setting": "SKOV-3 cells; 0.25 μM albendazole alone", "value": 48.4, "unit": "%"},
      {"measurement": "sensitivity of 1A9PTX22 compared to the parent line (1A9)", "setting": "1A9PTX22 cells [1]; 1A9PTX22 vs 1A9, various concentrations, 5 days", "value": "even more sensitive"},
      {"measurement": "inhibition at 1 µM", "setting": "1A9PTX22 cells [1]; Homo sapiens, 1A9/ptx-22, 120 h, read-out: inhibitory effect on proliferation", "value": 53, "unit": "%"}
    ]},
    {"compound": "COc1cc2c(c(OC)c1OC)-c1ccc(OC)c(=O)cc1[C@@H](NC(C)=O)CC2", "note": "[colchicine]", "values": [
      {"measurement": "concentration at which partial resistance of 1A9PTX22 is apparent", "setting": "1A9PTX22 cells [2]", "value": "≥ 100", "unit": "nM"},
      {"measurement": "degree of sensitivity of 1A9PTX22 cells compared to parent cell line 1A9", "setting": "1A9PTX22 cells [2]", "value": "significantly reduced"}
    ]},
    {"compound": "CC(=O)O[C@H]1C(=O)[C@@]2(C)[C@H]([C@H](OC(=O)c3ccccc3)[C@]3(O)C[C@H](OC(=O)[C@H](O)[C@@H](NC(=O)c4ccccc4)c4ccccc4)C(C)=C1C3(C)C)[C@]1(OC(C)=O)CO[C@@H]1C[C@@H]2O", "note": "[paclitaxel]", "values": [
      {"measurement": "inhibition at 0.0001 µM", "setting": "1A9 cells; 120 h, 1A9, 0.1 nM paclitaxel alone, 5 days", "value": 21.8, "unit": "%"},
      {"measurement": "inhibition at 10 pM", "setting": "SKOV-3 cells; Homo sapiens, SK-OV-3, 120 h, 0.01 nM paclitaxel alone", "value": 14.5, "unit": "%"},
      {"measurement": "effect on cell proliferation", "setting": "1A9PTX22 cells [1]; 1.0 nM paclitaxel alone, 5 days", "value": "not affected"},
      {"measurement": "effect on cell proliferation", "setting": "1A9PTX22 cells [1]; 5.0 nM paclitaxel alone, 5 days", "value": "not affected"},
      {"measurement": "increase in paclitaxel concentration required in paclitaxel-resistant cell lines for a response similar to paclitaxel-sensitive cells", "setting": "1A9PTX22 cells [1]; paclitaxel alone, resistant vs sensitive cells", "value": "approximately 50 fold"}
    ]},
    {"compound": "CC[C@]1(O)C[C@H]2CN(CCc3c([nH]c4ccccc34)[C@@](C(=O)OC)(c3cc4c(cc3OC)N(C=O)[C@H]3[C@@](O)(C(=O)OC)[C@H](OC(C)=O)[C@]5(CC)C=CCN6CC[C@]43[C@@H]65)C2)C1", "note": "[vincristine]", "values": [
      {"measurement": "concentration at which partial resistance of 1A9PTX22 is apparent", "setting": "1A9PTX22 cells [2]", "value": "≥ 5", "unit": "nM"},
      {"measurement": "degree of sensitivity of 1A9PTX22 cells compared to parent cell line 1A9", "setting": "1A9PTX22 cells [2]", "value": "significantly reduced"}
    ]}
  ]
}
